Laboratory results: patent publication US20080200538A1, “Inhibition of Monocyte Survival, Differentiation, or Proliferation” (The Ohio State University Research Foundation, priority 2005, published 2008)

Experiments:
caspase-3 = assay: Caspase-3 activity, DEVD-AFC assay, THP-1 lysates; format: cell-based, human
Procedure: FIG. 3. Apigenin induces caspase activation in monocytic leukemia. THP-1 (top) and U937 (bottom) leukemia cells were treated for various lengths of time with 50 μM apigenin or DMSO (NT). (A and C) Caspase-9 activity was determined by the LEHDAFC assay. (B and D) Caspase-3 activity was determined by the DEVD-AFC assay. Data represents means ±SEM (N=3).
(§1) FIG. 4. Caspase-3 activation is required for apigenin-induced apoptosis. THP-1 cells were treated for 12 h with 50 μM apigenin alone or pretreated with 20 μM DEVD-FMK for 1 h prior to the addition of apigenin. (A) Cells were then stained with calcein AM and 24 PI and the percentage of apoptotic cells was determined. (B) Lysates from cells treated as described above were used to determined caspase-3 activity by the DEVD-AFC assay. All data represents means ±SEM (N=5).
(§2) FIG. 7. Apigenin induced p38 activation is not required for apoptosis. A. Cells were pretreated for 1 h prior to addition of 50 μM apigenin or DMSO (−) with 10 or 25 μM concentrations of SB203580 or DMSO (−) for 12 h. The percentage of apoptotic cells was determined by calcein AM with PI stained cells. Data represents means ±SEM (N=5 p>0.05). B. Lysates from the same treatments were used to determined caspase-3 activity by the DEVD-AFC assay. Data represents means ±SEM (N=5 p>0.05).
For measurements of caspase activity, cells were plated at a density of 1.5×10^6 cells/well. After treatment, cells extracts were prepared as previously described (Doseff, A. I., Baker J. H., Bourgeois T. A. and Wewers M. D. (2003) Interleukin-4-induced zpoptosis entails caspase activation and suppression of extracellular signal-regulated kinase phosphorylation. Am. J. Resp. Cell Mol. Biol., 29, 367-374). […] Levels of released AFC were measured using Cytofluor 400 fluorimeter (Filters: excitation 400 nm, emission 508 nm; Perspective Co., Framingham, Mass.).

Akt = assay: Western blot of Akt phosphorylation and total Akt in THP-1 cells; format: cell-based, human; details: THP-1, 10 or 25 μM SB203580 1 h prior to 50 μM apigenin for 3 h
Procedure: FIG. 5. Apigenin affects Akt phosphorylation. THP-1 cells were treated with 50 μM apigenin for different lengths of time. Lysates were separated by SDS-PAGE, transferred and immunoblotted with anti-phospho-Akt (pSer 473), anti-phospho-Akt (pThr 308), total Akt, and â-tubulin antibodies.
FIG. 6. Apigenin induces the activation of p38 and inactivation of Akt. A. THP-1 cells were treated with 50 μM apigenin for various lengths of time. Lysates were separated by SDS-PAGE, transferred and analyzed by immunoblots with anti-phospho-p38 (pp 38) and anti-total-p38 antibodies. B. […] Lysates were analyzed by immunoblotting with anti-phospho-Akt (pSer 473), anti-phospho-p38 (p-p38), and anti-total-p38 antibodies.
Extracts from 3×10^6 cells were prepared by incubating cells for 30 min on ice in lysis buffer (50 mM Tris, 10 mM EDTA 0.5% NP-40, 10 mM Na-glycerophosphate, 5 mM Na-pyrophosphate, 50 mM NaF, 1 mM orthovanadate, 1 mM DTT, 0.1 mM PMSF, 2 μg/ml of protease inhibitors: chymostatin, pepstatin, antipain, and leupeptin). Cell lysates were centrifuged (14,000×g for 10 min at 4° C.) and the supernatants were stored for at −70° C. for future analysis. Equal amounts of protein were loaded and separated by SDS-PAGE, transferred onto nitrocellulose membranes and probed with antibodies of interest followed by horseradish peroxidase conjugated secondary antibody and visualized by enhanced chemiluminescence (Amersham, Arlington Heights, Ill.). Phospho-Ser473-Akt, phospho-Thr308-Alt, total AKT, phospho-p38 and total p38 antibodies were obtained from Cell Signaling (Boston, Mass.). â-tubulin antibody was obtained from Upstate (Charlottesville, Va.).

THP-1 cells [1] = assay: Cell survival and apoptosis by calcein AM/PI staining; format: cell-based, human
Procedure: FIG. 2. Apigenin induces cell death in monocytic leukemia cells. THP-1 and U937 leukemia cells were treated for various lengths of time with 50 μM apigenin or left untreated (NT) and stained with calcein AM and PI as described in Material and Methods to evaluate the percentage of cell survival. (A) THP cells after 12 h cells treated with 50 μM apigenin or with DMSO (NT). (B) The percentage of cell survival represented by means ±SEM (N=3).
as §1, §2
To investigate apoptosis, cells were plated at a density of 1×10^6 cells/well. After treatment, cells were collected and washed in PBS. Cells were then incubated in RPMI (no phenol red) and 1 μg/ml calcein AM for 30 min and 5×10−2 ng/ml propidium iodide (PI) for 5 min. Cells were washed twice and resuspended in PBS. Cells were viewed using a fluorescent microscope (Olympus, Melville, N.Y.). At least 200 cells were counted. Cells calcein AM positive (green) in the absence of PI (red) were considered alive while cells undergoing apoptosis are green with red. Number of green cells or green with red cells was counted over total number of cells (green alone and green with red) to express cell survival or apoptotic cell percentage respectively.

p38 = assay: Western blot of p38 phosphorylation in THP-1 cells; format: cell-based, human; details: THP-1, 10 or 25 μM SB203580 1 h prior to 50 μM apigenin for 3 h
Procedure: A. THP-1 cells were treated with 50 μM apigenin for various lengths of time. Lysates were separated by SDS-PAGE, transferred and analyzed by immunoblots with anti-phospho-p38 (pp 38) and anti-total-p38 antibodies. B. THP-1 cells were treated for 6 hr with 50 μM apigenin alone (lane 2), treated with the apigenin diluent (lane 1), pretreatred with 10 or 25 μM SB203580 for 1 hr prior to the addition of apigenin (lanes 3 and 4) or with the SB203580 inhibitor alone (lanes 5 and 6).
Extracts from 3×10^6 cells were prepared by incubating cells for 30 min on ice in lysis buffer (50 mM Tris, 10 mM EDTA 0.5% NP-40, 10 mM Na-glycerophosphate, 5 mM Na-pyrophosphate, 50 mM NaF, 1 mM orthovanadate, 1 mM DTT, 0.1 mM PMSF, 2 μg/ml of protease inhibitors: chymostatin, pepstatin, antipain, and leupeptin). Cell lysates were centrifuged (14,000×g for 10 min at 4° C.) and the supernatants were stored for at −70° C. for future analysis. Equal amounts of protein were loaded and separated by SDS-PAGE, transferred onto nitrocellulose membranes and probed with antibodies of interest followed by horseradish peroxidase conjugated secondary antibody and visualized by enhanced chemiluminescence (Amersham, Arlington Heights, Ill.). […]

U937 cells = assay: Cell viability assay (CellTiter 96 / MTT, A490); format: cell-based, human; details: U937, 500 μM naringenin, 24 h; reduced to
Procedure: (§3) FIG. 1. Effect of apigenin and naringenin in cell survival of cancer cells. (A) Structure of the flavonoids apigenin and naringenin. (B) THP-1, U937, A549, and MCF-7 cells were treated with various doses of apigenin or naringenin for 24 h. After the treatment, the percentage of cell proliferation was calculated as the ratio of treated cells to control cells as determined by the MTT method (A490). Data represents means ±SEM (N=9). […] Cells were plated at a density of 2×10^4 cells/well into 96-well plates and treated with flavonoids at indicated concentrations for 24 h. Absorbance at 490 nm (A490) was recorded using an ELISA plate reader (Bio-Tek ELx800, KC Junior, Winooski, Vt.).

THP-1 cells [2] = assay: Cell viability assay (CellTiter 96 / MTT, A490); format: cell-based, human; details: THP-1, 500 μM naringenin, 24 h; reduced to
Procedure: as §3

THP-1 cells [3] = tested on: THP-1 cells
A549 cells = assay: Cell viability assay (CellTiter 96 / MTT, A490); format: cell-based; details: A549, up to 500 μM naringenin, 24 h; reduced by
Procedure: as §3

MCF-7 cells = assay: Cell viability assay (CellTiter 96 / MTT, A490); format: cell-based; details: MCF-7, up to 500 μM naringenin, 24 h; reduced by
Procedure: as §3

[4] = THP-1, 20 μM DEVD-FMK 1 h prior to 50 μM apigenin for 12 h

With `C[S+]([O-])c1ccc(-c2nc(-c3ccncc3)c(-c3ccc(F)cc3)[nH]2)cc1` (centres unmarked) [SB203580, reference compound] the caspase-3 activity (caspase-3; THP-1, SB203580 and 50 μM apigenin vs apigenin alone, P>0.05) was “similar”, the “Akt phosphorylation at Ser473” value (Akt) was “increase” and the “number of apoptotic cells induced by apigenin” value (THP-1 cells [1]; THP-1, SB203580 (10 or 25 μM) 1 h prior to 50 μM apigenin, 12 h, vs apigenin alone, P>0.05) was “did not result in a reduction”. The “apigenin-induced p38 phosphorylation” value (p38) was “significantly reduced”.

With `O=C1C[C@@H](c2ccc(O)cc2)Oc2cc(O)cc(O)c21` [naringenin, reference compound] the “cell proliferation (ratio of treated to control cells)” value (U937 cells) was 60%, the “cell proliferation (ratio of treated to control cells)” value (THP-1 cells [2]) was 60% and the “conversion to another chemical entity in treated cells” value (THP-1 cells [3]) was “neither one of these two compounds is significantly converted”. The “reduction of cell proliferation” value (A549 cells) was 20% and the “reduction of cell proliferation” value (MCF-7 cells) was 20%.

With “DEVD-FMK: caspase-3 inhibitor obtained from Enzyme System Products [reference compound]” the “effect on apigenin-induced caspase-3 activity” value (caspase-3; [4]) was “inhibited the apigenin-induced activation of caspase-3 to the levels observed in untreated cells” and the apoptotic cells (THP-1 cells [1]; [4]) was less than 10%.
